Among the data in patent US20040072871A1, “Novel thiophene derivatives, their process of preparation and the pharmaceutical compositions which comprise them” (priority 2002, published 2004) are IC50 values, retold here.

Test [1] has as its target MMP-12 (Homo sapiens, UniProt P39900). In words: In vitro inhibition of proteolysis of fluorogenic peptide substrate FP-1 by MMP-12. The format is biochemical. Particulars: substrate FP-1 10 μM, 20 minutes at ambient temperature, compounds tested 0.3 to 30 μM. Here is the method:
(§1) The inhibitory activity of the compounds of formula (I) with regard to metalloproteinase-12 is evaluated by testing the ability of the compounds of the invention to inhibit the proteolysis of a peptide substrate by MMP-12.
(§2) The inhibitory activity of a compound of formula (I) is expressed as IC50 value, which represents the concentration of inhibitor at which a degree of inhibition of the metalloproteinase of 50% is observed.
(§3) The reaction begins with the sequential addition of 41 μl of substrate FP-1 (final concentration of 10 μM) to a buffer solution of 50 mM of Tris-HCl and 10 mM of CaCl2, which comprises 5 mM of hydroxamic acid and 5 μl of the enzyme diluted in a 0.005% Brij-35 buffer solution. The microplates are incubated for 20 minutes at ambient temperature. The compounds of the invention are tested at concentrations varying from 0.3 to 30 μM.
(§4) The measurement of the amount of proteolysis of the peptide substrate is monitored by a measurement of absorbance at 405 nm using a microplate spectrophotometer, at ambient temperature. The IC50 values are calculated from curves in which the percentage of the catalytic activity relative to the control is represented on the […] and the concentration of inhibitor is represented on the Y axis.

The target in test [2] is MMP-13 (Homo sapiens, UniProt P45452). Briefly: MMP-12 test adapted to MMP-13. The format is biochemical. The protocol:
as §1, §2, §3, §4
The test described above for the inhibition of MMP-12 is adapted and used to determine the ability of the compounds of formula (I) to inhibit the metalloproteinases MMP-1, MMP-2, MMP-3, MMP-7, MMP-9, MMP-13 and MMP-14. […] More specifically, the compounds of the present invention generally show a selectivity with a factor of greater than 50 with respect to the metalloproteinases mentioned above, except towards MMP-13. Thus, the compounds of the present invention also show an inhibitory activity with regard to MMP-13, making it possible to also use the pharmaceutical compositions comprising one or more compounds of the invention in the treatment of pathologies related to activity of MMP-13. Mention may be made, among these pathologies, by way of indication and without implied limitation, of cancer, osetoporosis, osteoarthritis, arthritis, rheumatoid arthritis, atherosclerosis, multiple sclerosis, cardiac insufficiency, asthma and chronic obstructive pulmonary disease.

Where a name gives a salt, the structure may show the parent alone.

MMP-12, sequence (P39900 106-470): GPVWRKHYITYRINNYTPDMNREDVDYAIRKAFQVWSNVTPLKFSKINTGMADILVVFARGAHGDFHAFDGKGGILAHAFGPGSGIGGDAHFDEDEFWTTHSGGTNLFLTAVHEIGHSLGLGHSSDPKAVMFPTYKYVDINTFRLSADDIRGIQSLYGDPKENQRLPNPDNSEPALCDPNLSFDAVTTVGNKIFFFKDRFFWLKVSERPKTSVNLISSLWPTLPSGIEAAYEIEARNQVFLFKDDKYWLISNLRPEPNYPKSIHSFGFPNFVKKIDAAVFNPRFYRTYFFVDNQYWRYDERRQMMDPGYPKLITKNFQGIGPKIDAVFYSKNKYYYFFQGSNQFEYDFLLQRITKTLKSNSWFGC

With `O=C(NCCN1CCOCC1)c1cc(-c2ccc(-c3cccc(O)c3)cc2)cs1` [Example 74, 4-[4-(3-Hydroxyphenyl)phenyl]-N-(2-morpholin-4-ylethyl)thiophene-2-carboxamide], the figures for the half-maximal inhibitory concentration (IC50) in test [1] and in test [2] were 0.465 µM and 6.25 µM, respectively.
Take `O=C(NCC1CCC(C(=O)O)CC1)c1cc(-c2ccc(OC(F)(F)F)cc2)cs1` (stereo not drawn) [Example 43, 4-({[4-(4-Trifluoromethoxyphenyl)thien-2-yl]carboxamido}-methyl)cyclohexanecarboxylic acid]: the IC50 in test [1] is 0.715 µM; in test [2], 5.37 µM.
On the same counts, the results for `O=C(O)Cc1ccc(CNC(=O)c2cc(-c3ccc(OC(F)(F)F)cc3)cs2)cc1` [Example 37, 2-[4-({[4-(4-Trifluoromethoxyphenyl)thien-2-yl]carboxamido}-methyl)phenyl]acetic acid] are 0.427 µM and 4.53 µM.
For the compound `O=C(NCCN1CCOCC1)c1cc(-c2ccc(C3CCCCC3)cc2)cs1` [Example 21, 4-[4-(Cyclohexyl)phenyl]-N-(2-morpholin-4-ylethyl)thiophene-2-carboxamide], the half-maximal inhibitory concentration (IC50) in test [1] was found to be 0.46 µM; in test [2] it was 11 µM.
With `CC(=O)c1ccc(-c2ccc(-c3csc(C(=O)NCc4ccc(C(=O)O)cn4)c3)cc2)cc1` [Example 135, 6({[4-(4′-Acetyl-4-biphenyl)thien-2-yl]carboxamido}methyl)-nicotinic acid], the concentration for half-maximal inhibition (IC50) is 0.042 µM in test [1] and 0.08 µM in test [2].
On to `O=C(NCCN1CCOCC1)c1cc(-c2ccc(N3CCCC3)cc2)cs1` [Example 14, 4-[4-(Pyrrolidin-1-yl)phenyl]-N-(2-morpholin-4-ylethyl)thiophene-2-carboxamide], for which the 50% inhibitory concentration (IC50) was 0.86 µM in test [1] and 2.08 µM in test [2].
For “2-(4-{[(4-{4-[4-(2-Oxopropyl)-3-hydroxyphenyl]phenyl}thien-2-yl)carboxamido]methyl}phenyl)acetic acid [Example 119]”, in that order: 0.13 µM and 0.78 µM.
For the compound `O=C(NCCN1CCOCC1)c1cc(-c2ccc(-c3ccncc3)cc2)cs1` [Example 9, 4-[4-(Pyridin-4-yl)phenyl]-N-(2-morpholin-4-ylethyl)thiophene-2-carboxamide], the concentration for half-maximal inhibition (IC50) in test [1] is 0.105 µM; in test [2], 1.5 µM.
For `O=C(NC[C@H]1CC[C@H](C(=O)O)CC1)c1cc(-c2ccc(-c3ccncc3)cc2)cs1` [Example 70, 4-[({4-[4-(Pyridinyl)phenyl]thien-2-yl}carboxamido)methyl]cyclo-hexanecarboxylic acid hydrochloride], in that order: 0.022 µM and 0.285 µM.
On the same counts, the results for `N#CCc1ccc(-c2ccc(-c3csc(C(=O)NCc4ccc(CC(=O)O)cc4)c3)cc2)cc1` [Example 109, 2-[4-({[4-(4′-Cyanomethyl-4-biphenyl)thien-2-yl]carboxamido}-methyl)phenyl]acetic acid] are 0.165 µM and 0.4 µM.
For `O=C(O)CC[C@H]1CC[C@H](NC(=O)c2cc(-c3ccc(OC(F)(F)F)cc3)cs2)CC1` [Example 129, trans-3-(4-{[4-(4-Trifluoromethoxyphenyl)thien-2-yl]-carboxamido}cyclohexyl)propanoic acid], in that order: 0.78 µM and 6.2 µM.
As for `O=C(NCc1cc(F)c(O)c(F)c1)c1cc(-c2ccc(OC(F)(F)F)cc2)cs1` [Example 84, N-(3,5-Difluoro-4-hydroxybenzyl)-4-(4-trifluoromethoxyphenyl)-thiophene-2-carboxamide], the 50% inhibitory concentration (IC50) in test [1] was determined as 0.56 µM; in test [2], 3.06 µM.
On the same counts, the results for `CS(=O)(=O)c1ccc(-c2ccc(-c3csc(C(=O)NCCN4CCOCC4)c3)cc2)cc1` [Example 75, 4-[4-(4-Methylsulphonylphenyl)phenyl]-N-(2-morpholin-4-ylethyl)thiophene2-carboxamide] are 0.34 µM and 0.27 µM.
For `O=C(O)Cc1ccc(CNC(=O)c2cc(-c3ccc(-c4cncnc4)cc3)cs2)cc1` [Example 111, 2-{4-[({4-[4-(Pyrimidin-5-yl)phenyl]thien-2-yl}carboxamido)-methyl]phenyl}acetic acid], in that order: 0.7 µM and 2.2 µM.
On the same counts, the results for `CC(=O)c1cccc(-c2ccc(-c3csc(C(=O)NCCN4CCOCC4)c3)cc2)c1` [Example 76] are 0.48 µM and 3.7 µM.
On to `O=C(O)CCc1ccc(NC(=O)c2cc(-c3ccc(OC(F)(F)F)cc3)cs2)nc1` [Example 27], for which the results for the IC50 in test [1] and in test [2] were 0.845 µM and 6.1 µM, respectively.
Take `O=C(NCCN1CCOCC1)c1cc(-c2ccc(-c3ccc(F)cc3)cc2)cs1` [Example 73, 4-[4-(4-Fluorophenyl)phenyl]-N-(2-morpholin-4-ylethyl)thiophene-2-carboxamide]: the IC50 in test [1] amounted to 0.355 µM; in test [2], 0.4 µM.
On the same counts, the results for `O=C(NC[C@H]1CC[C@H](C(=O)O)CC1)c1cc(-c2ccc(OC(F)(F)F)cc2)cs1` [Example 35, trans-4-({[4-(4-Trifluoromethoxyphenyl)thien-2-yl]-carboxamido}methyl)cyclohexanecarboxylic acid] are 0.405 µM and 3.45 µM.
For `O=C(NCCN1CCOCC1)c1cc(-c2ccc(-c3cccnc3)cc2)cs1` [Example 11, 4-[4-(Pyridin-3yl)phenyl]-N-(2-morpholin-4-ylethyl)thiophene-2-carboxamide], in that order: 0.91 µM and 4.8 µM.
For `O=C(NCCN1CCOCC1)c1cc(-c2ccc(-c3cccc(CO)c3)cc2)cs1` [Example 101, 4-{4-[3-(Hydroxymethyl)phenyl]phenyl}-N-(2-morpholin-4-ylethyl)-thiophene-2-carboxamide], the IC50 amounted to 0.99 µM in test [1] and 3.7 µM in test [2].
On the same counts, the results for `O=C(O)c1ccc(CNC(=O)c2cc(-c3ccc(OC(F)(F)F)cc3)cs2)cc1` [Example 47, 4-({[4-(4-Trifluoromethoxyphenyl)thien-2-yl]carboxamido}-methyl)benzoic acid] are 0.436 µM and 3.59 µM.
For `O=C(NC[C@H]1CC[C@H](C(=O)O)CC1)c1cc(-c2ccc(OC(F)(F)F)cc2)cs1` [Example 99, trans-4-({[4-(4-Trifluoromethoxyphenyl)thien-2-yl]carboxamido}-methyl)cyclohexanecarboxylic acid, Sodium Salt], in that order: 0.45 µM and 5 µM.
For `O=C(NCc1ccc(O)c(C(=O)O)c1)c1cc(-c2ccc(OC(F)(F)F)cc2)cs1` [Example 133, 2-Hydroxy-({[4-(4-trifluoromethoxyphenyl)thien-2-yl]-carboxamido}methyl)benzoic acid], in that order: 0.95 µM and 2.65 µM.
For the compound `O=C(O)Cc1cccc(CNC(=O)c2cc(-c3ccc(OC(F)(F)F)cc3)cs2)c1` [Example 41, 2-[3-({[4-(4-Trifluoromethoxyphenyl)thien-2-yl]carboxamido}-methyl)phenyl]acetic acid], the IC50 is 0.883 µM in test [1] and 5.17 µM in test [2].
For `O=C(O)Cc1ccc(CNC(=O)c2cc(-c3ccc(-c4ccccc4O)cc3)cs2)cc1` [Example 115], in that order: 0.25 µM and 3.32 µM.
For `O=C(O)CCc1cccc(CNC(=O)c2cc(-c3ccc(OC(F)(F)F)cc3)cs2)c1` [Example 65, 3-[3-({[4-(4-Trifluoromethoxyphenyl)thien-2-yl]carboxamido}-methyl)phenyl]propanoic acid], in that order: 0.685 µM and 2.9 µM.
For `CC(C)[C@H](NC(=O)c1cc(-c2ccc(OC(F)(F)F)cc2)cs1)C(=O)O` [Example 150, (2S)-2-{[4-(4-Trifluoromethoxyphenyl)thien-2-yl]carboxamido}-3-methylbutanoic acid], in that order: 0.78 µM and 10.1 µM.
As for `CC(=O)c1ccc(-c2ccc(-c3csc(C(=O)NCCN4CCOCC4)c3)cc2)cc1` [Example 72, 4-[4-(4-Acetylphenyl)phenyl]-N-(2-morpholin-4-ylethyl)thiophene-2-carboxamide], the IC50 in test [1] worked out at 0.057 µM; in test [2], 0.13 µM.
For `O=C(O)Cc1ccc(NC(=O)c2cc(-c3ccc(OC(F)(F)F)cc3)cs2)cc1` [Example 55, (4-{[4-(4-Trifluoromethoxyphenyl)thien-2-yl]carboxamido}-phenyl)acetic acid], in that order: 0.615 µM and 15.8 µM.
For “3-[4-({[4-(4-Trifluoromethoxyphenyl)thien-2-yl]carboxamido}-methyl)phenyl]propanoic acid [Example 63]”, in that order: 0.49 µM and 3.8 µM.

What is called IC50 is the concentration needed to halve the response being measured.
